Test results as given in ChEMBL document CHEMBL1201862, “PubChem BioAssay data set” (2004).
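Values below derive from 48-hour exposures of cells grown in 96-well plates, with endpoints linearly interpolated between the two concentrations bracketing the appropriate inhibition level. The concentration for 50% growth inhibition is given as GI50.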 Calls of active or inactive are those of the source. No stated cut-off is given here; in the data, active = GI50 up to about 1.1 µM and inactive = higher.

How the values were obtained:
Test in all cases: NCI anticancer screen, dose series, 48 h
EKVX = system: EKVX
COLO 205 = system: COLO 205
NCI-H226 = system: NCI-H226
SF-268 = system: SF-268
SNB-75 = system: SNB-75
UO-31 = system: UO-31
SK-MEL-28 = system: SK-MEL-28
SNB-19 = system: SNB-19
SF-295 = system: SF-295
LOX IMVI = system: LOX IMVI
M14 = system: M14
Malme-3M = system: Malme-3M
DMS-114 = system: DMS-114
K562 = system: K562
UACC-257 = system: UACC-257
A549 = system: A549
SN12C = system: SN12C
RXF 393 = system: RXF 393
T47D = system: T47D
MDA-MB-435 = system: MDA-MB-435

Measured: GI50

Cn1ncc2c(Nc3ccc(Cl)cc3)c3ccccc3nc21
inactive: EKVX > 10 µM | COLO 205 19.7 µM | NCI-H226 17.3 µM | SF-268 20.3 µM | SNB-75 10.8 µM | UO-31 > 10 µM | SK-MEL-28 15.3 µM | SNB-19 18 µM | SF-295 17.7 µM | LOX IMVI 15.1 µM | M14 14.8 µM | Malme-3M 20.2 µM | DMS-114 13.4 µM | K562 16.2 µM | UACC-257 17.3 µM | A549 15.3 µM | SN12C 16 µM

Cn1c(=O)c2nc(NCCO)cnc2n(C)c1=O
inactive: EKVX > 100 µM | COLO 205 > 100 µM | SF-268 > 100 µM | SNB-75 8.73 µM | UO-31 48.9 µM | SK-MEL-28 > 100 µM | SNB-19 > 100 µM | SF-295 45.3 µM | M14 68.2 µM | Malme-3M 44.7 µM | DMS-114 64.1 µM | K562 44.2 µM | UACC-257 > 100 µM | A549 > 100 µM | RXF 393 35.6 µM | SN12C > 100 µM

CCN(CC)CC1CCCCN1CC(=O)N1c2cc(Cl)ccc2NC(=O)CC1C (stereo not drawn)
inactive: EKVX > 100 µM | COLO 205 > 100 µM | NCI-H226 > 100 µM | SF-268 > 100 µM | SNB-75 > 100 µM | UO-31 > 100 µM | SK-MEL-28 > 100 µM | SNB-19 > 100 µM | LOX IMVI > 100 µM | M14 > 100 µM | Malme-3M > 100 µM | DMS-114 > 100 µM | K562 > 100 µM | UACC-257 > 100 µM | A549 > 100 µM | SN12C > 100 µM

COc1cc(OC)c(Oc2cccc(OC)c2OC)c(OC)c1
inactive: EKVX > 100 µM | COLO 205 > 100 µM | NCI-H226 > 100 µM | SF-268 > 100 µM | SNB-75 > 100 µM | UO-31 > 100 µM | SK-MEL-28 > 100 µM | SNB-19 32.1 µM | SF-295 > 100 µM | LOX IMVI > 100 µM | M14 > 100 µM | DMS-114 > 100 µM | K562 > 100 µM | UACC-257 > 100 µM | A549 > 100 µM | SN12C > 100 µM

CC[C@H](C)N(CCN)C(=O)c1cc2ccccc2c(-c2ccccc2Cl)n1
inactive: EKVX 11.5 µM | COLO 205 4.54 µM | NCI-H226 15 µM | SF-268 1.55 µM | UO-31 12.7 µM | SK-MEL-28 13.5 µM | SNB-19 16.1 µM | SF-295 15.1 µM | LOX IMVI 14.3 µM | M14 17.8 µM | DMS-114 13.9 µM | K562 3.05 µM | UACC-257 1.91 µM | A549 4.41 µM | RXF 393 6.55 µM | SN12C 18.2 µM

CC(C)(C)/N=C\N(C=C(c1ccccc1)c1ccccc1)C1CCCCC1
inactive: EKVX 93.1 µM | COLO 205 22.7 µM | SF-268 41.1 µM | SNB-75 33.7 µM | SK-MEL-28 35 µM | SNB-19 > 100 µM | SF-295 32 µM | LOX IMVI 25.2 µM | Malme-3M 17.1 µM | DMS-114 19.2 µM | K562 17.7 µM | UACC-257 33.3 µM | A549 81.3 µM | RXF 393 19.4 µM | SN12C 43.4 µM

CCN(CC)CCC(=O)NC1c2ccccc2Oc2c(C)cccc21 (stereo not drawn)
inactive: EKVX > 100 µM | COLO 205 > 100 µM | NCI-H226 > 100 µM | SF-268 > 100 µM | SNB-75 > 100 µM | UO-31 63.7 µM | SK-MEL-28 > 100 µM | SNB-19 > 100 µM | LOX IMVI > 100 µM | M14 > 100 µM | DMS-114 > 100 µM | K562 > 100 µM | UACC-257 > 100 µM | A549 > 100 µM | RXF 393 > 100 µM | SN12C > 100 µM

N=C(N)NS(=O)(=O)c1ccc(NC(=O)c2cccc3c(Nc4ccc(S(=O)(=O)N=C(N)N)cc4)c4ccccc4nc23)cc1
inactive: EKVX 71 µM | COLO 205 31.3 µM | SF-268 62.5 µM | SNB-75 6.05 µM | UO-31 > 100 µM | SK-MEL-28 82.8 µM | SNB-19 > 100 µM | SF-295 88.1 µM | LOX IMVI 43.3 µM | M14 50.8 µM | Malme-3M > 100 µM | DMS-114 24.9 µM | K562 5.98 µM | UACC-257 > 100 µM | A549 79.1 µM | RXF 393 99.1 µM | SN12C > 100 µM

Cc1cc2cc3c(O)nc(O)nc3nc2cc1C
inactive: EKVX > 100 µM | COLO 205 > 100 µM | NCI-H226 > 100 µM | SF-268 > 100 µM | SNB-75 27.6 µM | UO-31 > 100 µM | SK-MEL-28 > 100 µM | SNB-19 > 100 µM | T47D > 100 µM | SF-295 > 100 µM | LOX IMVI > 100 µM | M14 > 100 µM | Malme-3M > 100 µM | MDA-MB-435 > 100 µM | K562 > 100 µM | UACC-257 > 100 µM | A549 > 100 µM | RXF 393 52.2 µM | SN12C > 100 µM

CCOC(=O)COc1ccc(OC)c2c1C(=O)CCC2
inactive: EKVX > 100 µM | COLO 205 > 100 µM | SNB-75 > 100 µM | SK-MEL-28 > 100 µM | SNB-19 20 µM | SF-295 > 100 µM | LOX IMVI > 100 µM | M14 > 100 µM | DMS-114 > 100 µM | K562 > 100 µM | UACC-257 > 100 µM | A549 > 100 µM | RXF 393 > 100 µM | SN12C > 100 µM

Cn1ccnc1C(c1nccn1C)C(C)(C)[N+](=O)[O-]
inactive: EKVX > 100 µM | COLO 205 > 100 µM | SF-268 > 100 µM | SNB-75 > 100 µM | SK-MEL-28 > 100 µM | SF-295 > 100 µM | LOX IMVI > 100 µM | M14 > 100 µM | DMS-114 > 100 µM | K562 > 100 µM | UACC-257 > 100 µM | A549 > 100 µM | RXF 393 > 100 µM | SN12C > 100 µM

CCOC(=O)CC(NC(=O)c1nc[nH]c1/N=N/N(C)C)C(=O)OCC (stereo not drawn)
inactive: EKVX > 100 µM | COLO 205 > 100 µM | NCI-H226 > 100 µM | SF-268 > 100 µM | SNB-75 > 100 µM | UO-31 > 100 µM | SK-MEL-28 > 100 µM | SNB-19 > 100 µM | SF-295 > 100 µM | LOX IMVI > 100 µM | M14 > 100 µM | Malme-3M > 100 µM | DMS-114 > 100 µM | K562 > 100 µM | UACC-257 > 100 µM | A549 > 100 µM | SN12C > 100 µM
